Data reported in patent US4091097A, “Treatment of elevated histamine and uric acid levels” (Zaidan Hojin Biseibutsu Kagaku Kenkyu Kai, priority 1973, dated 1978).
Where two headings read alike, the source gives them in different places.

How the values were obtained:
[1] = system: anaphylactic shock (egg albumin); assay: Effect on the Anaphylactic Shock in Mice; type: in vivo, mice (DDY Strain)
Protocol: DDY Strain mice were sensitized by subcutaneous injection of a mixture of 0.1 ml. (100 μg.) egg albumin (Nutritional Biochemical Corp. U.S.A., 5 times crystallized) and 0.1 ml. Freund's complete adjuvant (Difco Co., U.S.A.) in saline. The mice were used for the test 3 months thereafter. The sensitized animals were divided in 3 groups of 4 animals each, which were subcutaneously administered the test compound several times before antigen challenge to cause anaphylactic shock. Group 1 received 100 mg./kg. 19 hours before and 50 mg./kg. 9, 4 and 1 hour before challenge. Group 2 received 100 mg./kg. 9 hours before and 50 mg./kg. 4 and 1 hour before challenge. Group 3 was a control group and received only saline solution.

[2] = system: acetic acid-induced stretching movements; assay: Analgesic Activity in mice (acetic acid stretching); type: in vivo, mice (DDY Strain); settings: control (no drug) 53
Protocol: Male mice of the DDY Strain having mean body weight of 20 g. were divided to the groups of 10 animals each, to which compounds of this invention or aminopyrine in saline solution were administered intraperitoneally (i.p.). The dosage was 200, 50 or 12.5 mg./kg. Then 30 minutes later, 0.2 ml. per 20 g. body weight of 0.7% acetic acid in saline was injected intraperitoneally and the number of characteristic stretching movements counted for 20 minute period and compared with a control group receiving no analgesic.

rats = assay: Subacute toxicity, daily doses for 32 consecutive days; type: in vivo; settings: 3.1, 12.5, 50 and 200 mg./kg. daily, oral or i.p., 32 days
Acute toxicity, rats = settings: rat, in vivo, printed 'for oral administration', then first of 'respective administration'
Protocol: (§1) The acute toxicity was determined for oral and intraperitoneal administration with mice and rats (6 mice and 2 rats in one dose group), and the LD50 value, i.e., the single application dose killing 50% of the test animals, was estimated.

[3] = system: pyrexia induced by TTG No. 2; assay: Antipyretic Activity in Pyrexia-Induced Rabbits; type: in vivo, Japanese rabbits; settings: 200 mg./kg. oral
Protocol: Common white male Japanese rabbits, 2.0 - 3.0 kg. body weight, were injected through the ear vein with 20 μg./kg. of a pyrexia inducer TTG No. 2, purified polysaccharide preparation obtained from Pseudomonas aeruginosa (marketed by Fujisawa Pharmaceutical Company, Japan), and the body temperature was monitored with a rectal thermister-type thermometer. Three hours prior to the TTG injection four rabbits in each experimental section orally received the test drug in the dose of 200 mg./kg. One group received aspirin in a dose of 100 mg./kg and a control group no drug.

histidine decarboxylase [4] = molecular target: T1, histidine decarboxylase (Rattus norvegicus, UniProt P16453); assay: Inhibition of Histidine Decarboxylase (14C-histamine formation); type: biochemical, fetal rats
T1 construct: a crude enzyme preparation obtained from fetal rats; from tissue
T1 sequence (P16453 1-656): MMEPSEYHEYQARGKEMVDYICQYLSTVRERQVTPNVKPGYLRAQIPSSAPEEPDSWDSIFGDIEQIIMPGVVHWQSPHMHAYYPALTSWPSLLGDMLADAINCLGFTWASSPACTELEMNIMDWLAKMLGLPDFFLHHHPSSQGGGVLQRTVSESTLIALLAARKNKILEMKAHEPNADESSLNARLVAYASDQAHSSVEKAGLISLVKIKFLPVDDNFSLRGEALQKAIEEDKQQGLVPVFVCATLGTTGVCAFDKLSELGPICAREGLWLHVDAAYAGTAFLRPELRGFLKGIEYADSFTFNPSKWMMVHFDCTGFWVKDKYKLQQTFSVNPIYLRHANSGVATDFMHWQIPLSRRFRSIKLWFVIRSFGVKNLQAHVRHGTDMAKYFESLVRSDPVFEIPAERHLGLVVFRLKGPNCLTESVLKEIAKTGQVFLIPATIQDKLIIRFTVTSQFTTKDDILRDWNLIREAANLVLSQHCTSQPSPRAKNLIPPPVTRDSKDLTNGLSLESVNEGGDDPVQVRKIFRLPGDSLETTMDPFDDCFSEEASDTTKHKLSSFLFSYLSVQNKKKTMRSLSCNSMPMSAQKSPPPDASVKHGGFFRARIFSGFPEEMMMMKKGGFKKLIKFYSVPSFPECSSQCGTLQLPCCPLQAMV
Protocol: After two hours of incubation at 37° C., the histamine 2-^14 C formed was collected on an ion exchange resin ("Amberlite" CG-50, ammonia type) from which, after washing with water, the histamine was liberated in 1N aqueous ammonia solution and radioactivity was measured.

mice and rats = settings: in vivo
Protocol: as §1

animals [5] = settings: cited from earlier work
histidine decarboxylase [6] = settings: cited from earlier work
animals [7] = settings: cited from earlier work; remark: listed apart in the source
[8] = Group 1 (100 mg./kg. 19 h, 50 mg./kg. 9, 4, 1 h before), mouse 1, control 5
[9] = Group 2 (100 mg./kg. 9 h, 50 mg./kg. 4, 1 h before), mouse 1, control 5
[10] = 2 hrs. after TTG, control (no drug) 1.2
[11] = 4 hrs. after TTG, control (no drug) 1.6
[12] = pH 6.8, two hours at 37° C., read-out: Histidine Decarboxylase Inhibition ID50

## O=C(Nc1cc(Cl)c(O)c(Cl)c1)c1ccccc1O [Compound 1]
[1]; [8]
  Symptoms emerged, time after challenge: 15 min
[1]; Group 1, mouse 1, control 15
  Died, time after challenge: 30 min
[1]; Group 1, mouse 2, control 3
  Symptoms emerged, time after challenge: 20 min
[1]; Group 1, mouse 2, control 20
  Died, time after challenge: 35 min
[1]; [9]
  Symptoms emerged, time after challenge: 35 min
[1]; Group 2, mouse 2, control 3
  Symptoms emerged, time after challenge: 10 min
[1]; Group 2, mouse 2, control 20
  Died, time after challenge: 30 min
[1]; Group 2, mouse 3, control 7
  Symptoms emerged, time after challenge: 25 min
[1]; Group 2, mouse 4, control 3
  Symptoms emerged, time after challenge: 20 min
[1]; Group 2, mouse 4, control 20
  Died, time after challenge: 40 min
[2]; 50 mg./kg. i.p.
  Analgesic Activity: Stretching Count (20 minutes): 11
[2]; 200 mg./kg. i.p.
  Analgesic Activity: Stretching Count (20 minutes): 4
rats
  disease symptoms or abnormality attributable to drug dosing: no particular disease symptoms or abnornality attributable to the drug dosing was noted
  weight gain: the weight gain was normal
Acute toxicity, rats
  LD50: 2200 mg/kg
[3]; [10]
  Antipyretic Activity: Elevation of Body Temperature: 0.6 °C
[3]; [11]
  Antipyretic Activity: Elevation of Body Temperature: 0.5 °C
Histidine decarboxylase [4]
  IC50: 22 nM

## O=C(Nc1cc(Br)c(O)c(Br)c1)c1ccccc1O [Compound 3]
Mice and rats
  comparative toxicity: comparatively more toxic than the others
[2]; 50 mg./kg. i.p.
  Analgesic Activity: Stretching Count (20 minutes): 17
[2]; 200 mg./kg. i.p.
  Analgesic Activity: Stretching Count (20 minutes): 6
[3]; [10]
  Antipyretic Activity: Elevation of Body Temperature: 0.6 °C
[3]; [11]
  Antipyretic Activity: Elevation of Body Temperature: 0.5 °C
Histidine decarboxylase [4]
  IC50: 23 nM

## O=C(Nc1ccc(O)c(Br)c1)c1ccc(O)cc1O [Compound 5]
Mice and rats
  comparative toxicity: comparatively more toxic than the others
[2]; 50 mg./kg. i.p.
  Analgesic Activity: Stretching Count (20 minutes): 14
[2]; 200 mg./kg. i.p.
  Analgesic Activity: Stretching Count (20 minutes): 6
[3]; [10]
  Antipyretic Activity: Elevation of Body Temperature: 0.5 °C
[3]; [11]
  Antipyretic Activity: Elevation of Body Temperature: 0.4 °C
Histidine decarboxylase [4]; [12]
  IC50: 30 nM

## O=C(Nc1cc(Br)c(O)c(C(=O)O)c1)c1ccccc1O [Compound 6]
Mice and rats
  comparative toxicity: comparatively more toxic than the others
[2]; 50 mg./kg. i.p.
  Analgesic Activity: Stretching Count (20 minutes): 25
[2]; 200 mg./kg. i.p.
  Analgesic Activity: Stretching Count (20 minutes): 12
[3]; [10]
  Antipyretic Activity: Elevation of Body Temperature: 0.5 °C
[3]; [11]
  Antipyretic Activity: Elevation of Body Temperature: 0.5 °C
Histidine decarboxylase [4]; [12]
  IC50: 260 nM

## O=C(Nc1cc(Cl)c(O)c(Cl)c1)c1cc(F)ccc1O [Compound 10]
[2]; 50 mg./kg. i.p.
  Analgesic Activity: Stretching Count (20 minutes): 35
[2]; 200 mg./kg. i.p.
  Analgesic Activity: Stretching Count (20 minutes): 20
[3]; [10]
  Antipyretic Activity: Elevation of Body Temperature: 0.6 °C
[3]; [11]
  Antipyretic Activity: Elevation of Body Temperature: 0.5 °C
Histidine decarboxylase [4]; [12]
  IC50: 230 nM

## CCOc1c(Cl)cc(NC(=O)c2ccc(O)cc2O)cc1Br [Compound 15]
Mice and rats
  comparative toxicity: comparatively more toxic than the others
Histidine decarboxylase [4]; [12]
  IC50: 310 nM

## Cc1cc(NC(=O)c2ccc(Br)cc2O)cc(C(=O)O)c1O [Compound 19]
Mice and rats
  comparative toxicity: comparatively more toxic than the others
Histidine decarboxylase [4]; [12]
  IC50: 330 nM

## O=C(Nc1ccc(O)c(Cl)c1)c1cc(Br)ccc1O [Compound 20]
Mice and rats
  comparative toxicity: comparatively more toxic than the others
Histidine decarboxylase [4]
  IC50: 580 nM

## Cc1ccc(C(=O)Nc2cc(Br)c(O)c(Br)c2)c(O)c1 [Compound 22]
Mice and rats
  comparative toxicity: comparatively more toxic than the others
Histidine decarboxylase [4]
  IC50: 800 nM

## Nc1c(Cl)cc(NC(=O)c2ccccc2O)cc1Cl [Compound 24]
Mice and rats
  comparative toxicity: comparatively more toxic than the others
Histidine decarboxylase [4]; [12]
  IC50: 140 nM

## CC(=O)Oc1ccccc1C(=O)Nc1cc(Cl)c(OC(C)=O)c(Cl)c1 [Compound 30]
[2]; 50 mg./kg. i.p.
  Analgesic Activity: Stretching Count (20 minutes): 14
[2]; 200 mg./kg. i.p.
  Analgesic Activity: Stretching Count (20 minutes): 4
[3]; [10]
  Antipyretic Activity: Elevation of Body Temperature: 0.5 °C
[3]; [11]
  Antipyretic Activity: Elevation of Body Temperature: 0.5 °C
Histidine decarboxylase [4]; [12]
  IC50: 24 nM

## CC(C)CC(=O)Oc1ccccc1C(=O)Nc1cc(Cl)c(OC(=O)CC(C)C)c(Cl)c1 [Compound 31]
[2]; 50 mg./kg. i.p.
  Analgesic Activity: Stretching Count (20 minutes): 13
[2]; 200 mg./kg. i.p.
  Analgesic Activity: Stretching Count (20 minutes): 4
[3]; [10]
  Antipyretic Activity: Elevation of Body Temperature: 0.6 °C
[3]; [11]
  Antipyretic Activity: Elevation of Body Temperature: 0.5 °C
Histidine decarboxylase [4]; [12]
  IC50: 17 nM

## CCC(=O)Oc1ccccc1C(=O)Nc1cc(Cl)c(OC(=O)CC)c(Cl)c1 [Compound 33]
[1]; [8]
  Symptoms emerged, time after challenge: 10 min
[1]; Group 1, mouse 1, control 15
  Died, time after challenge: 30 min
[1]; Group 1, mouse 2, control 3
  Symptoms emerged, time after challenge: 25 min
[1]; Group 1, mouse 3, control 7
  Symptoms emerged, time after challenge: 30 min
[1]; [9]
  Symptoms emerged, time after challenge: 20 min
[1]; Group 2, mouse 1, control 15
  Died, time after challenge: 40 min
[1]; Group 2, mouse 2, control 3
  Symptoms emerged, time after challenge: 20 min
[1]; Group 2, mouse 2, control 20
  Died, time after challenge: 45 min
[1]; Group 2, mouse 3, control 7
  Symptoms emerged, time after challenge: 30 min
[1]; Group 2, mouse 4, control 20
  Died, time after challenge: 40 min
[2]; 50 mg./kg. i.p.
  Analgesic Activity: Stretching Count (20 minutes): 12
[2]; 200 mg./kg. i.p.
  Analgesic Activity: Stretching Count (20 minutes): 5
rats
  disease symptoms or abnormality attributable to drug dosing: no particular disease symptoms or abnornality attributable to the drug dosing was noted
  weight gain: the weight gain was normal
[3]; [10]
  Antipyretic Activity: Elevation of Body Temperature: 0.6 °C
[3]; [11]
  Antipyretic Activity: Elevation of Body Temperature: 0.5 °C
Histidine decarboxylase [4]; [12]
  IC50: 39 nM

## CCCC(=O)Oc1ccc(C(=O)Nc2cc(Cl)c(N)c(C(=O)OC)c2)c(OC(=O)CCC)c1 [Compound 42]
Mice and rats
  comparative toxicity: comparatively more toxic than the others
Histidine decarboxylase [4]; [12]
  IC50: 510 nM

## CCC(=O)Oc1ccc(OC(=O)CC)c(C(=O)Nc2cc(Cl)c(N)c(C(=O)OC)c2)c1 [Compound 43]
Mice and rats
  comparative toxicity: comparatively more toxic than the others
Histidine decarboxylase [4]; [12]
  IC50: 530 nM

## Cc1cc(OC(=O)c2c(C)cc(O)cc2O)cc(O)c1C(=O)O [Lecanoric acid, 4'-carboxy-2,3'-dimethyl-4,6,5'-trihydroxyphenylbenzoate]
Animals [5]
  anti-inflammatory activity (in words): only weak anti-inflammatory activity
Histidine decarboxylase [6]
  inhibitory activity to histidine decarboxylase (in words): strong inhibitory activity
Animals [7]
  hydrolysis in animals: hydrolysed in animals
